Where two headings read alike, the source gives them in different places.
Tests used:
[1] = system: patients with recurrent malignant glioma; conditions: single agent, cited from earlier work
clinical = conditions: human, in vivo
GBM = conditions: second line treatment of patients with GBM; cited from earlier work

| Compound | predominant DLT ([1]; patients not taking EIAEDs) | predominant DLT ([1]; patients on EIAEDs) | AUC from 0–12 hours at MTD, those receiving EIAEDs compared with those not receiving EIAEDs [1] | change of AUC between daily or twice daily dosing (clinical) | AUC (clinical; 100 mg) | T1/2 (clinical; 100 mg) | AUC (clinical; 100 mg, AUC) | half-life (clinical; 100 mg, T1/2) | 6-months progression free survival (PFS) (GBM) |
| --- | --- | --- | --- | --- | --- | --- | --- | --- | --- |
| Cn1cncc1[C@@](N)(c1ccc(Cl)cc1)c1ccc2c(c1)c(-c1cccc(Cl)c1)cc(=O)n2C [tipifarnib, Tipifarnib] | myelosuppression | rash | approximately halved | do not seem to change significantly | 761.5 ± 468.8 ng·h/mL | 3.35 ± 1.29 h | 904 ± 377 ng·h/mL | 6.57 ± 1.18 h |  |
| bevacizumab |  |  |  |  |  |  |  |  | 29–45% |
